Laboratory results reported in patent US20100210722A1, “COMPOSITION FOR PREVENTING OR TREATING LIPID METABOLIC DISORDERS COMPRISING FUCOXANTHIN OR MARINE PLANT EXTRACT CONTAINING SAME” (AMICOGEN, INC., priority 2007, published 2010).
Marks after values point to notes of the source that are not given here.

Assays:
Format in all cases: in vivo, C57BL/6N/CriBgi mice
[1] = system: FAS mRNA; assay: Expression of mRNA for FAS in adipose tissue (real-time PCR); settings: normal diet = 1.00, GAPDH internal marker
Description: (§1) Test diets were as follows: “normal diet group”=AIN-76 semisynthetic diet of Teklad (Madison, Wl, USA); “high fat diet group”=normal diet+10% of corn oil and 10% of lard; “test group I”=high fat diet+fucoxanthin extract of Example 1 (fucoxanthin content=0.05%); “test group II”=high fat diet+fucoxanthin extract of Example 1 (fucoxanthin content=0.2%); “test group III”=high fat diet+fucoxanthin extract of Example 2 (fucoxanthin content=0.05%); “test group IV”=high fat diet+fucoxanthin extract of Example 2 (fucoxanthin content=0.2%). The 6 diets (normal diet, high fat diet, and test I, II, III and IV) were given to the animals for 6 weeks. Diet intake was recorded every day, and body weight was measured once a week.
(§2) 5 mL of Trizol was added to 0.5 g of white adipose tissue. After pulverizing in liquid nitrogen using a mortar, the tissue was added to 1 mL of chloroform. […] The isolated RNA was diluted and absorbance was measured at 260 nm using a UV spectrometer. […]
(§3) Thus prepared cDNA was […] 10-fold, and primers for analyzing the expression of the respective genes (CPT, β-oxidation, FAS, ME and G6PD) were obtained from Genotech (Daejeon, Korea). […] Fluorescence signals were monitored for each cycle and threshold cycle (Cr) was analyzed for quantitative analysis of mRNA for the test groups (Applied Biosystems, SDS7000) (Livak, 2001). […]

[2] = Triglyceride and cholesterol level in liver tissue; settings: high fat diet, 6 weeks
Experimental: (§4) Seventy (70) 4-week-old male C57BL/6N/CriBgi mice weighing 14 g were purchased from Orient, and reared in separate cages maintained at 24° C. and relative humidity of 55%, providing light from 08:00 until 20:00. The mice were accustomed while providing a pellet type diet for a week. The mice, which weighed 18.5-18.7 g, were grouped into seven groups by the randomized block design. Each group was given a different diet, as follows.
as §1

[3] = system: ME mRNA; assay: Expression of mRNA for ME in liver tissue (real-time PCR)
[4] = system: β-oxidation; assay: Mitochondrial β-oxidation activity; settings: mitochondrial fraction, high fat diet, 6 weeks
Description: as §1
Mitochondrial β-oxidation activity was measured from the degree of reduction of NAD to NADH using palmitoyl-CoA. Specifically, 10 μL of mitochondrial fraction was added to a reaction solution containing 50 mM Tris-HCl (pH 8.0), 20 mM NAD, 0.33 M DTT, 1.5% BSA (1.5 g/100 mL), 2% Triton X-100 (2 g/100 mL), 10 mM CoA, 1 mM FAD, 100 mM KCN and 5 mM palmitoyl-CoA to initiate reaction. Then, change of absorbance was measured at 37° C. and 340 nm for 5 minutes. β-Oxidation activity was calculated as nmol of NADH produced per 1 mg of mitochondrial protein per minute.

[5] = system: β-oxidase mRNA; assay: Expression of mRNA for β-oxidation in adipose tissue (real-time PCR); settings: normal diet = 1.00, GAPDH internal marker
Description: as §1, §2, §3

[6] = system: G6PD mRNA; assay: Expression of mRNA for G6PD in adipose tissue (real-time PCR); settings: normal diet = 1.00, GAPDH internal marker
Description: as §1, §2, §3

[7] = Body weight of mice fed high fat diet with fucoxanthin extract or highly pure fucoxanthin; settings: high fat diet; for Body weight, Week 0: Week 0 (baseline); for Body weight, Week 0 / Body weight, Week 1 / Body weight, Week 2: in g (unit assumed)
Experimental: as §4, §1
During the 6-week test period, body weight was measured every week. Significance of differences of means of the groups was evaluated by one-way analysis of variance (ANOVA) technique. Duncan's multiple range test was employed for post-evaluation of the groups, with P<0.05.

[8] = Triglyceride and cholesterol level in plasma; settings: high fat diet, 6 weeks, fasted 12 hours
Experimental: as §4, §1
The mice fed with the test diets for 6 weeks of Reference Example 1 were fasted for 12 hours. The mice were anesthetized first by ether inhalation, and then by intramuscular injection of ketamine-HCl (Yuhan). […] Plasma was separated by carrying out centrifuge at 3,000 rpm for 15 minutes. The separated plasma was stored at −70° C.

[9] = fucoxanthin content 0.05% (Test I/III)
[10] = fucoxanthin content 0.2% (Test II/IV)

CC(=O)O[C@H]1CC(C)(C)C(=C=C/C(C)=C/C=C/C(C)=C/C=C/C=C(C)/C=C/C=C(\C)C(=O)C[C@@]23O[C@]2(C)C[C@@H](O)CC3(C)C)[C@](C)(O)C1 [highly pure fucoxanthin, Fucoxanthin]
Expression of mRNA, FAS [1, 9]: 0.51 ± 0.03^abc
Expression of mRNA, FAS [1, 10]: 0.28 ± 0.05^a
Triglyceride level in liver tissue [2, 9]: 0.14 ± 0.01^c mmol/g liver
Triglyceride level in liver tissue [2, 10]: 0.17 ± 0.02^b mmol/g liver
Expression of mRNA, ME ([3]; normal diet = 1.00, fucoxanthin content 0.05% (Test I/III)): 0.84 ± 0.08^bc
Expression of mRNA, ME ([3]; normal diet = 1.00, fucoxanthin content 0.2% (Test II/IV)): 0.53 ± 0.03^a
β-Oxidation activity [4, 9]: 9.46 ± 2.56^bc mmol/min/mg protein
β-Oxidation activity [4, 10]: 13.28 ± 3.79^c mmol/min/mg protein
Expression of mRNA, β-Oxidation [5, 9]: 1.41 ± 0.50^b
Expression of mRNA, β-Oxidation [5, 10]: 1.26 ± 0.24^b
Expression of mRNA, G6PD [6, 9]: 1.10 ± 0.15^abc
Expression of mRNA, G6PD [6, 10]: 0.67 ± 0.04^a
Body weight, Week 0 [7, 9]: 18.56 ± 0.3
Body weight, Week 1 [7, 9]: 20.19 ± 0.2
Body weight, Week 2 [7, 9]: 21.79 ± 0.3
Body weight, Week 3 [7, 9]: 22.70 ± 0.2^b
Body weight, Week 4 [7, 9]: 24.39 ± 0.3^b
Body weight, Week 5 [7, 9]: 26.46 ± 0.3^b
Body weight, Week 6 [7, 9]: 27.80 ± 0.3^b
Body weight, Week 0 [7, 10]: 18.58 ± 0.3
Body weight, Week 1 [7, 10]: 20.19 ± 0.3
Body weight, Week 2 [7, 10]: 22.30 ± 0.3
Body weight, Week 3 [7, 10]: 22.96 ± 0.4^ab
Body weight, Week 4 [7, 10]: 25.17 ± 0.5^ab
Body weight, Week 5 [7, 10]: 26.39 ± 0.6^b
Body weight, Week 6 [7, 10]: 27.37 ± 0.7^bc
Cholesterol level in plasma [8, 9]: 2.35 ± 0.22^a mmol/L
Triglyceride level in plasma [8, 9]: 1.15 ± 0.07^b mmol/L
Cholesterol level in plasma [8, 10]: 2.35 ± 0.11^b mmol/L
Triglyceride level in plasma [8, 10]: 1.24 ± 0.07^b mmol/L
